Here are results for 29 compounds from patent US20260022094A1, “Compounds for the Treatment of Neurodegenerative Diseases” (Celgene Corporation, priority 2022, published 2026).

T1 sequence (Q9H228 whole entry): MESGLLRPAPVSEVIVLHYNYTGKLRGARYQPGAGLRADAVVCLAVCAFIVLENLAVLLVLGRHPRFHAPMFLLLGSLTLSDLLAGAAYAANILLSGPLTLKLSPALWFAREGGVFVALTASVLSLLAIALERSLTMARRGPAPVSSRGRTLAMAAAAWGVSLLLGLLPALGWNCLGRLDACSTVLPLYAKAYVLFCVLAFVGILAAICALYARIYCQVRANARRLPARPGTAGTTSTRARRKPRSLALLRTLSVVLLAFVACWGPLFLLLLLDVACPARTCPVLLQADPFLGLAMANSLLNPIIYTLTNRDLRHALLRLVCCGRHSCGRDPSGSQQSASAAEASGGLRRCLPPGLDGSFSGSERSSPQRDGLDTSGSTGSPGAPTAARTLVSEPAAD

The assay addresses T1, S1P5 receptors (Homo sapiens, UniProt Q9H228).
T1 construct: expressed in transfected cells; host or cells: CHO cells (membranes)
Briefly: [35S]-GTPγS binding assay on CHO-S1P5 membranes (S1P5 agonism). It is filed as biochemical. To be noted: membranes of CHO cells expressing recombinant S1P5; measure of S1P5 agonism. The procedure:
CHO cells expressing recombinant S1P5 receptors were cultured in 500 cm^2 culture trays and, once confluent, rinsed and detached with cell-lifting buffer (10 mM HEPES, 154 mM NaCl, 6.85 mM EDTA, pH 7.4). Cells were then pelleted by centrifugation, resuspended, and homogenized in membrane preparation buffer (10 mM HEPES and 10 mM EDTA, pH 7.4) using a Polytron PT 1200E homogenizer (Kinematica, Luzern, Switzerland). Cellular proteins were pelleted by centrifugation at 48,000×g at 4° C. for 30 minutes. The resulting supernatant was discarded, and the pellet was re-suspended again in membrane preparation buffer, homogenized for a second time, and then centrifuged again as described above. The final cellular protein pellet was suspended in ice cold resuspension buffer (10 mM HEPES and 0.1 mM EDTA, pH 7.4), divided into aliquots, and stored at −80° C. until use.
Functional binding assays for [^35S]-GTPγS were performed in 96-well non-binding surface plates with a final volume of 200 μL. The test compounds were serially diluted in DMSO and added to assay plates using a Tecan D300E digital printer with a total volume of 0.4 μL. The control sphingosine-1-phosphate (SIP) was prepared separately by preparing a 400 µM stock solution from a 100 nmol pellet of S1P in 10 mM Na2CO3 with 2% β-cyclodextrin. The serial dilution of S1P was done using complete assay buffer (20 mM HEPES, 10 mM MgCl2, 100 mM NaCl, 1 mM EDTA, 0.1% fatty acid free bovine serum albumin (BSA), and 30 μg/mL saponin, pH 7.4) and transferred to wells already containing 0.4 μL DMSO. All the wells were then loaded to a total volume of 40 μL of complete assay buffer, except the non-specific binding (NSB) wells. For NSB wells, 40 μL/well of 50 μM GTPγS (Sigma Aldrich, cat #G8634, St. Louis, MO) was added to wells containing 0.4 μL of DMSO. The assay was started by the addition of 120 μL/well of CHO-SIP receptor membrane solution containing 40 μg/mL of membrane protein, 16.67 μM guanosine diphosphate (GDP; Sigma Aldrich, cat #G7127, St. Louis, MO), and 2.5 mg/mL of WGA PVT SPA beads in complete buffer. Assay plates were then sealed and incubated at room temperature with gentle agitation for 30 minutes. Next, 40 μL/well of 1 nM of [^35S]-GTPγS (PerkinElmer, cat #NEG030X^250UC, Waltham, MA) in basic assay buffer (20 mM HEPES, 10 mM MgCl2, 100 mM NaCl, and 1 mM EDTA, pH7.4) was added to the assay plates to yield a final concentration of […] and the plates were further incubated for 40 minutes at room temperature with gentle agitation. The assay was terminated by centrifugation of the plates at 1000 rpm for 3 minutes using an Eppendorf 5810R centrifuge (Eppendorf, Hamburg, Germany) and G protein bound radioactivity was quantitated using a MicroBeta2 microplate scintillation counter (PerkinElmer, Waltham, MA). As G protein bound radioactivity directly correlates to receptor activation and coupling to the G protein, this assay is a measure of S1P5 agonism.
On the technique in general: GTPγS resists hydrolysis and so accumulates on activated G proteins.
Consider `CC1(O)CN(Cc2ccc(C#Cc3cccc(F)c3)cc2)C1` [Compound 29, 1-(4-((3-fluorophenyl)-ethynyl)benzyl)-3-methylazetidin-3-ol], for which the EC50 – broadly, the concentration giving half of the maximal effect – is 100 to 1000 nM.

For the compound `Cc1cc(C2CN(c3ccc(C4CC4)c(Cl)c3)C2)cc(C)c1CN1CC(C)(O)C1` [Compound 46, 1-(4-(1-(3-chloro-4-cyclopropylphenyl)azetidin-3-yl)-2,6-dimethylbenzyl)-3-methylazetidin-3-ol], the EC50 fell in the range of 100 to 1000 nM.

`Cc1cc(-c2ccc(C3CC3)c(Cl)c2)cc2c1C(N1CC(C)(O)C1)CC2` (single isomer, unassigned) [Compound 10a, 1-[5-(3-chloro-4-cyclopropyl-phenyl)-7-methyl-indan-1-yl]-3-methyl-azetidin-3-ol]: the half-maximal effective concentration (EC50) lay within 1 to 10 nM.

For the compound `CC1(O)CCN(C2CCc3cc(-c4ccc(C5CC5)c(Cl)c4)ccc32)CC1` (centres unmarked) [Compound 6, 1-(5-(3-chloro-4-cyclopropylphenyl)-2,3-dihydro-1H-inden-1-yl)-4-methylpiperidin-4-ol], the EC50 fell in the range of 1000 to 10000 nM.

Consider `Cc1c(OCc2c(Cl)cccc2Cl)ccc2c1CCC2N1CC(C)(O)C1` (single isomer, unassigned) [Compound 19b, 1-[5-[(2,6-dichlorophenyl)methoxy]-4-methyl-indan-1-yl]-3-methyl-azetidin-3-ol], for which the EC50 was 1 to 10 nM.

Regarding `Cc1cc(CN2CC(C)(O)C2)cc(C)c1C1CN(c2c(Cl)cccc2Cl)C1` [Compound 57, 1-(4-(1-(2,6-dichlorophenyl)azetidin-3-yl)-3,5-dimethylbenzyl)-3-methylazetidin-3-ol], the EC50 lay in the range of 10 to 100 nM.

On to `Cc1c(-c2ccc(C3CC3)c(Cl)c2)ccc2c1CCC2N1CC(C)(O)C1` (single isomer, unassigned) [Compound 16a, 1-[5-(3-chloro-4-cyclopropyl-phenyl)-4-methyl-indan-1-yl]-3-methyl-azetidin-3-ol], for which the EC50 lay in the range of 1 to 10 nM.

Turning to `CC1(O)CN(C2CCc3cc(C#Cc4cccc(F)c4)ccc32)C1` (single isomer, unassigned) [Compound 2a, 1-[5-[2-(3-fluorophenyl)ethynyl]indan-1-yl]-3-methyl-azetidin-3-ol], the concentration giving a half-maximal response (EC50) is 100 to 1000 nM.

For the compound `Cc1cc(C2CN(c3c(Cl)cccc3Cl)C2)cc(C)c1CN1CC(O)(CF)C1` [Compound 39, 1-(4-(1-(2,6-dichlorophenyl)azetidin-3-yl)-2,6-dimethylbenzyl)-3-(fluoromethyl) azetidin-3-ol], the EC50 lay in the range of 100 to 1000 nM.

For `Cc1cc2c(cc1-c1ccc(C3CC3)c(Cl)c1)CCC2N1CC(C)(O)C1` (single isomer, unassigned) [Compound 21b, 1-[5-(3-chloro-4-cyclopropyl-phenyl)-6-methyl-indan-1-yl]-3-methyl-azetidin-3-ol], the EC50 fell in the range of 1 to 10 nM.

As for `CCc1cc(C2CN(c3c(Cl)cccc3Cl)C2)cc(C)c1CN1CC(C)(O)C1` [Compound 51, 1-(4-(1-(2,6-dichlorophenyl)azetidin-3-yl)-2-ethyl-6-methylbenzyl)-3-methylazetidin-3-ol], the EC50 is 10 to 100 nM.

For `Cc1cc(C2CN(c3c(Cl)cccc3Cl)C2)cc(F)c1CN1CC(C)(O)C1` [Compound 48, 1-(4-(1-(2,6-dichlorophenyl)azetidin-3-yl)-2-fluoro-6-methylbenzyl)-3-methylazetidin-3-ol], the EC50 lay within 10 to 100 nM.

`CC1(O)CN(Cc2ccc(C3CN(c4c(Cl)cccc4Cl)C3)cc2C2CC2)C1` [Compound 50, 1-(2-cyclopropyl-4-(1-(2,6-dichlorophenyl)azetidin-3-yl)benzyl)-3-methylazetidin-3-ol]: the EC50 was 10 to 100 nM.

As to `Cc1cc(C2CN(c3c(Cl)cccc3Cl)C2)cc(C)c1CN1CC(O)(C(F)(F)F)C1` [Compound 41, 1-(4-(1-(2,6-dichlorophenyl)azetidin-3-yl)-2,6-dimethylbenzyl)-3-(trifluoromethyl) azetidin-3-ol], the EC50 was 100 to 1000 nM.

For `Cc1cc2c(cc1OCc1c(Cl)cccc1Cl)CCC2N1CC(C)(O)C1` (single isomer, unassigned) [Compound 24a, 1-[5-[(2,6-dichlorophenyl)methoxy]-6-methyl-indan-1-yl]-3-methyl-azetidin-3-ol], the EC50 lay in the range of 1 to 10 nM.

For the compound `Cc1cc(C2CN(c3c(F)cccc3F)C2)cc(C)c1CN1CC(C)(O)C1` [Compound 42, 1-(4-(1-(2,6-difluorophenyl)azetidin-3-yl)-2,6-dimethylbenzyl)-3-methylazetidin-3-ol], the EC50 was in the range of 10 to 100 nM.

For `Cc1cc(-c2ccc(C3CC3)c(Cl)c2)cc2c1C(N1CCC(C)(O)CC1)CC2` (centres unmarked) [Compound 11, 1-(5-(3-chloro-4-cyclopropylphenyl)-7-methyl-2,3-dihydro-1H-inden-1-yl)-4-methylpiperidin-4-ol], the EC50 lay within 1000 to 10000 nM.

In the case of `Cc1cc2c(cc1CCc1c(Cl)cccc1Cl)CCC2N1CC(C)(O)C1` (single isomer, unassigned) [Compound 23b, 1-[5-[2-(2,6-dichlorophenyl)ethyl]-6-methyl-indan-1-yl]-3-methyl-azetidin-3-ol], the EC50 lay in the range of 10 to 100 nM.

On to `CC1(O)CN(C2CCc3cc(C#Cc4ccccc4F)ccc32)C1` (single isomer, unassigned) [Compound 1a, 1-[5-[2-(2-fluorophenyl)ethynyl]indan-1-yl]-3-methyl-azetidin-3-ol], for which the EC50 was in the range of 10 to 100 nM.

Regarding `CC1(O)CN(Cc2ccc(N3CC(c4c(Cl)cccc4Cl)C3)nc2)C1` [Compound 64, 1-((6-(3-(2,6-dichlorophenyl)azetidin-1-yl)pyridin-3-yl)methyl)-3-methylazetidin-3-ol], the EC50 fell in the range of 100 to 1000 nM.

Consider `CCc1cc(C2CN(c3c(Cl)cccc3Cl)C2)cc(CC)c1CN1CC(C)(O)C1` [Compound 52, 1-(4-(1-(2,6-dichlorophenyl)azetidin-3-yl)-2,6-diethylbenzyl)-3-methylazetidin-3-ol], for which the EC50 was in the range of 100 to 1000 nM.

Turning to `Cc1c(-c2ccc(C3CC3)c(Cl)c2)cc2c(c1C)C(N1CC(C)(O)C1)CC2` (single isomer, unassigned) [Compound 27a, 1-(5-(3-chloro-4-cyclopropylphenyl)-6,7-dimethyl-2,3-dihydro-1H-inden-1-yl)-3-methylazetidin-3-ol], the EC50 lay within 1 to 10 nM.

On to `Cc1cc(-c2ccc(C3CC3)c(Cl)c2)cc2c1C(N1CCC(C)(O)C1)CC2` (centres unmarked) [Compound 12, 1-(5-(3-chloro-4-cyclopropylphenyl)-7-methyl-2,3-dihydro-1H-inden-1-yl)-3-methylpyrrolidin-3-ol], for which the EC50 was 100 to 1000 nM.

With `CC1(O)CCN(C2CCc3cc(C4CN(c5c(Cl)cccc5Cl)C4)ccc32)CC1` (centres unmarked) [Compound 8, 1-(5-(1-(2,6-dichlorophenyl)azetidin-3-yl)-2,3-dihydro-1H-inden-1-yl)-4-methyl-piperidin-4-ol], the EC50 is 1000 to 10000 nM.

As to `Cc1c(CCc2c(Cl)cccc2Cl)ccc2c1CCC2N1CC(C)(O)C1` (single isomer, unassigned) [Compound 18a, 1-[5-[2-(2,6-dichlorophenyl)ethyl]-4-methyl-indan-1-yl]-3-methyl-azetidin-3-ol], the concentration giving a half-maximal response (EC50) was in the range of 1 to 10 nM.

Consider `CC(C)c1cc(C2CN(c3c(Cl)cccc3Cl)C2)cc(C(C)C)c1CN1CC(C)(O)C1` [Compound 53, 1-(4-(1-(2,6-dichlorophenyl)azetidin-3-yl)-2,6-diisopropylbenzyl)-3-methylazetidin-3-ol], for which the concentration giving a half-maximal response (EC50) lay within 1000 to 10000 nM.

As for `Cc1cc(C2CN(c3ccccc3)C2)cc(C)c1CN1CC(C)(O)C1` [Compound 43, 1-(2,6-dimethyl-4-(1-phenylazetidin-3-yl)benzyl)-3-methylazetidin-3-ol], the EC50 is 1000 to 10000 nM.

Consider `Cc1cc(-c2ccc(C3CC3)c(Cl)c2)c(C)c2c1C(N1CC(C)(O)C1)CC2` (single isomer, unassigned) [Compound 26a, 1-[5-(3-chloro-4-cyclopropyl-phenyl)-4,7-dimethyl-indan-1-yl]-3-methyl-azetidin-3-ol], for which the EC50 was 1 to 10 nM.

With `Cc1cc(CCc2c(Cl)cccc2Cl)cc2c1C(N1CC(C)(O)C1)CC2` (single isomer, unassigned) [Compound 14a, 1-[5-[2-(2,6-dichlorophenyl)ethyl]-7-methyl-indan-1-yl]-3-methyl-azetidin-3-ol], the EC50 lay within 1 to 10 nM.
